Consider 21 molecules from patent US20110034507A1, “FARNESOID X RECEPTOR AGONISTS” (SMITHKLINE BEECHAM CORPORATION, priority 2007, published 2011).

The target of this assay is T1, Human FXRα Ligand Binding Domain (Homo sapiens, UniProt Q96RI1).
T1 construct: polyhistidine (pRSET-A vector leader) (N); made in house; host or cells: E. coli BL21 (DE3), pRSET-A vector
T1 sequence (Q96RI1 237-472 isoform Q96RI1-2): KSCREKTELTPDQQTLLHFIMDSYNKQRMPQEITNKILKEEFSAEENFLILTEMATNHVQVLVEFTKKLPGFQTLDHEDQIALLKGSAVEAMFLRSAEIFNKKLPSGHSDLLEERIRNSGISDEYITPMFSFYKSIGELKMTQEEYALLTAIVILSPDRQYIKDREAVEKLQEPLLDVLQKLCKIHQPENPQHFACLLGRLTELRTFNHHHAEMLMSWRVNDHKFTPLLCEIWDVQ
In words: FXR Cofactor Binding Assay (ligand mediated SRC-1 cofactor peptide interaction, time resolved fluorescence). In kind it is biochemical. The note with it: FXRα LBD / SRC-1 (LCD2, 676-700) peptide, TRF; read-out: Activity (pEC50) (converted). The text has this:
Determination of a ligand mediated cofactor peptide interaction to quantify ligand binding to the nuclear receptor Farnesoid X Receptor (FXR). The method measures the ability of putative ligands to modulate the interaction between the purified bacterial expressed FXRα ligand binding domain (LBD) and a synthetic biotinylated peptide based on residues 676-700 of steroid receptor coactivator-1 (SRC-1) (LXXLL-containing domain-2 where L is the amino acid leucine and X indicates any other amino acid (LCD2), 676-700). The sequence of the SRC-1 peptide used is as published in Iannone, M. A., et al., 2001 Cytometry 44:326-337 where the N-terminus was biotinylated (B) and the C-terminus was amidated. Detection of the associated complex was measured by time resolved fluorescence (TRF). The purified LBD of FXR was labeled with biotin, then mixed with stoichiometric amounts of allophycocyanin (APC) labeled streptavidin (Molecular Probes). The biotinylated peptide was then mixed with a ½ stoichiometric amount of europium labeled streptavidin (Wallac Inc). Each was then blocked with a 5 fold excess of biotin and allowed to equilibrate for 15 min. Equimolar amounts of receptor and peptide were mixed together and were allowed to equilibrate for at least 30 min prior to the addition to either a variable or constant concentrations of the sample for which the affinity is to be determined. After equilibration, the time-resolved fluorescent signal was quantitated using a fluorescent plate reader. The affinity of the test compound was estimated from a plot of fluorescence versus concentration of test compound added.
Ligands that promote the complex formation induce a concentration-dependent increase in time-resolved fluorescent signal.
Human FXRα Ligand Binding Domain (FXRα LBD) was expressed in E. coli strain BL21 (DE3) as an amino-terminal polyhistidine tagged fusion protein. Expression was under the control of an isopropyl-β-D-thiogalactopyranoside (IPTG) inducible T7 promoter. DNA encoding this recombinant protein is subcloned into the pRSET-A expression vector (Invitrogen). The coding sequence of Human FXRα LBD was derived from Genbank accession number U 68233 (amino acids 237 to 472).
Ten-liter fermentation batches were grown in Rich PO4 media with 0.1 mg/mL Ampicillin at 25° C. for 12 hours, cooled to 9° C. and held at that temperature for 36 hours to a density of OD600=14. At this cell density, 0.25 mM IPTG is added and induction proceeded for 24 hours at 9° C., to a final OD600=16. Cells are harvested by centrifugation (20 minutes, 3500×gravity, 4° C.), and concentrated cell slurries were stored in phosphate buffered saline (PBS) at […].
Routinely, 30-40 g cell paste (equivalent to 2-3 liters of the fermentation batch) was resuspended in 200-250 mL Tris buffered saline (TBS), pH 7.2 (25 mM Tris-hydroxymethylamino methane (Tris), 150 mM sodium chloride). Cells were lysed by passing 3 times through a French Press and cell debris was removed by centrifugation (30 minutes, 20,000×gravity, 4° C.). The cleared supernatant was filtered through course pre-filters, and TBS, pH 7.2, 500 mM imidazole was added to obtain a final imidazole concentration of 50 mM. This lysate was loaded onto a column (6×8 cm) packed with Sepharose [Ni^++ charged] Chelation resin (Pharmacia) and pre-equilibrated with TBS pH 7.2/50 mM imidazole. After washing to baseline absorbance with equilibration buffer, the column was washed with one column volume of TBS pH 7.2 containing 90 mM imidazole. FXRα LBD was eluted directly with 365 mM imidazole. Column fractions were pooled and dialyzed against TBS, pH 7.2, containing 0.5 mM EDTA and 5 mM DTT. The dialyzed protein sample was concentrated using Centri-prep 10 K (Amicon) and subjected to size exclusion, using a column (3×90 cm) packed with Sepharose S-75 resin (Pharmacia) pre-equilibrated with TBS, pH 7.2, containing 0.5 mM ethylene diamine tetraacetic acid (EDTA) and 5 mM dithiothreitol (DTT).
For the molecule `CC(C)c1onc(-c2c(Cl)cccc2Cl)c1COc1ccc2cc(-c3ccc(C(=O)O)cc3)ccc2c1` [Example 22, 4-[6-({[3-(2,6-Dichlorophenyl)-5-(1-methylethyl)-4-isoxazolyl]methyl}oxy)-2-naphthalenyl]benzoic acid], the EC50 is 102 to 1000 nM.
As for `CC(C)c1onc(-c2c(Cl)cccc2Cl)c1COc1ccc2cc(-c3ccc(CCC(=O)O)cc3)ccc2c1` [Example 23, 3-{4-[6-({[3-(2,6-Dichlorophenyl)-5-(1-methylethyl)-4-isoxazolyl]methyl}oxy)-2-naphthalenyl]phenyl}propanoic acid], the EC50 is 102 to 1000 nM.
For the molecule `CC(C)c1onc(-c2c(Cl)cccc2Cl)c1COc1ccc2cc(-c3ccc(C(=O)O)cn3)ccc2c1` [Example 24, 6-[6-({[3-(2,6-Dichlorophenyl)-5-(1-methylethyl)-4-isoxazolyl]methyl}oxy)-2-naphthalenyl]-3-pyridinecarboxylic acid], the EC50 was 102 to 1000 nM.
As for `CC(C)c1onc(-c2c(Cl)cccc2Cl)c1COc1ccc2cc(-c3ccc(C(=O)O)s3)ccc2c1` [Example 25, 5-[6-({[3-(2,6-Dichlorophenyl)-5-(1-methylethyl)-4-isoxazolyl]methyl}oxy)-2-naphthalenyl]-2-thiophenecarboxylic acid], the EC50 is 102 to 1000 nM.
Take `CC(C)c1onc(-c2c(Cl)cccc2Cl)c1COc1ccc2cc(-c3cccc(N(S(=O)(=O)C(F)(F)F)S(=O)(=O)C(F)(F)F)c3)ccc2c1` [Example 26, N-{3-[6-({[3-(2,6-Dichlorophenyl)-5-(1-methylethyl)-4-isoxazolyl]methyl}oxy)-2-naphthalenyl]phenyl}-1,1,1-trifluoro-N-[(trifluoromethyl)sulfonyl]methanesulfonamide]: the EC50 is 102 to 1000 nM.
The same measure for `CC(=O)N(C(C)=O)c1cccc(-c2ccc3cc(OCc4c(-c5c(Cl)cccc5Cl)noc4C(C)C)ccc3c2)c1` [Example 27, N-acetyl-N-{3-[6-({[3-(2,6-dichlorophenyl)-5-(1-methylethyl)-4-isoxazolyl]methyl}oxy)-2-naphthalenyl]phenyl}acetamide]: 102 to 1000 nM.
The same measure for `CC(C)c1onc(-c2c(Cl)cccc2Cl)c1COc1ccc2cc(-c3cccc(NS(=O)(=O)C(F)(F)F)c3)ccc2c1` [Example 28, N-{3-[6-({[3-(2,6-dichlorophenyl)-5-(1-methylethyl)-4-isoxazolyl]methyl}oxy)-2-naphthalenyl]phenyl}-1,1,1-trifluoromethanesulfonamide]: 102 to 1000 nM.
As for `CC(=O)Nc1cccc(-c2ccc3cc(OCc4c(-c5c(Cl)cccc5Cl)noc4C(C)C)ccc3c2)c1` [Example 29, N-{3-[6-({[3-(2,6-dichlorophenyl)-5-(1-methylethyl)-4-isoxazolyl]methyl}oxy)-2-naphthalenyl]phenyl}acetamide], the EC50 was 102 to 1000 nM.
With `CC(C)c1onc(-c2c(Cl)cccc2Cl)c1COc1ccc2cc(-c3cccc(OC(F)(F)F)c3)ccc2c1` [Example 30, 3-(2,6-Dichlorophenyl)-5-(1-methylethyl)-4-{[(6-{3-[(trifluoromethyl)oxy]phenyl}-2-naphthalenyl)oxy]methyl}isoxazole], the EC50 is 102 to 1000 nM.
In the case of `CC(=O)Nc1ccc(-c2ccc3cc(OCc4c(-c5c(Cl)cccc5Cl)noc4C(C)C)ccc3c2)cc1` [Example 31, N-{4-[6-({[3-(2,6-dichlorophenyl)-5-(1-methylethyl)-4-isoxazolyl]methyl}oxy)-2-naphthalenyl]phenyl}acetamide], the EC50 is 102 to 1000 nM.
With `CC(C)c1onc(-c2c(Cl)cccc2Cl)c1COc1ccc2cc(-c3ccc(NS(=O)(=O)C(F)(F)F)cc3)ccc2c1` [Example 32, N-{4-[6-({[3-(2,6-dichlorophenyl)-5-(1-methylethyl)-4-isoxazolyl]methyl}oxy)-2-naphthalenyl]phenyl}-1,1,1-trifluoromethanesulfonamide], the EC50 was 102 to 1000 nM.
In the case of `CC(C)c1onc(-c2c(Cl)cccc2Cl)c1COc1ccc2ccc(-c3cccc(C(=O)O)c3)cc2c1` [Example 33, 3-[7-({[3-(2,6-Dichlorophenyl)-5-(1-methylethyl)-4-isoxazolyl]methyl}oxy)-2-naphthalenyl]benzoic acid], the EC50 was 102 to 1000 nM.
Turning to `CC(C)c1onc(-c2c(Cl)cccc2Cl)c1COc1ccc2cc(-c3ccc(Cl)c(C(=O)O)c3)ccc2c1` [Example 34, 2-Chloro-5-[6-({[3-(2,6-dichlorophenyl)-5-(1-methylethyl)-4-isoxazolyl]methyl}oxy)-2-naphthalenyl]benzoic acid], the EC50 was 102 to 1000 nM.
The same measure for `CC(C)c1onc(-c2c(Cl)cccc2Cl)c1COc1ccc2cc(-c3ccc(F)c(C(=O)O)c3)ccc2c1` [Example 35, 5-[6-({[3-(2,6-Dichlorophenyl)-5-(1-methylethyl)-4-isoxazolyl]methyl}oxy)-2-naphthalenyl]-2-fluorobenzoic acid]: 102 to 1000 nM.
Regarding `CC(C)c1onc(-c2c(Cl)cccc2Cl)c1COc1ccc2cc(-c3cccc(C(=O)O)c3)sc2c1` [Example 36, 3-[6-({[3-(2,6-Dichlorophenyl)-5-(1-methylethyl)-4-isoxazolyl]methyl}oxy)-1-benzothien-2-yl]benzoic acid], the EC50 is 102 to 1000 nM.
With `CC(C)c1onc(-c2c(Cl)cccc2Cl)c1CNc1nc2ccc(-c3cccc(C(=O)O)c3)cc2s1` [Example 37, 3-[2-({[3-(2,6-Dichlorophenyl)-5-(1-methylethyl)-4-isoxazolyl]methyl}amino)-1,3-benzothiazol-6-yl]benzoic acid] the figure was 102 to 1000 nM; with `CC(C)c1onc(-c2c(Cl)cccc2Cl)c1COc1ccc2cc(-c3cccc(C(=O)O)c3)ccc2c1` [Example 38, 3-[6-({[3-(2,6-Dichlorophenyl)-5-(1-methylethyl)-4-isoxazolyl]methyl}oxy)-2-naphthalenyl]benzoic acid], 102 to 1000 nM; with `CC(C)c1onc(-c2c(Cl)cccc2Cl)c1CCc1nc2cc(-c3cccc(C(=O)O)c3)ccc2o1` [Example 39, 3-(2-{2-[3-(2,6-dichlorophenyl)-5-(1-methylethyl)-4-isoxazolyl]ethyl}-1,3-benzoxazol-5-yl)benzoic acid], 1020 to 10000 nM.
The same measure for `CC(C)c1onc(-c2c(Cl)cccc2Cl)c1COc1ccc2c(Nc3cccc(C(=O)O)c3)cccc2c1` [Example 40, 3-{[6-({[3-(2,6-Dichlorophenyl)-5-(1-methylethyl)-4-isoxazolyl]methyl}oxy)-1-naphthalenyl]amino}benzoic acid]: 102 to 1000 nM; for `CC(C)c1onc(-c2c(Cl)cccc2Cl)c1CCc1nc2cccc(Nc3cccc(C(=O)O)c3)c2o1` [Example 41, 3-[(2-{2-[3-(2,6-Dichlorophenyl)-5-(1-methylethyl)-4-isoxazolyl]ethyl}-1,3-benzoxazol-7-yl)amino]benzoic acid]: 1020 to 10000 nM; for `CC(C)c1onc(-c2c(Cl)cccc2Cl)c1COc1ccc2c(c1)ncn2Cc1cccc(C(=O)O)c1` [Example 42, 3-{[5-({[3-(2,6-Dichlorophenyl)-5-(1-methylethyl)-4-isoxazolyl]methyl}oxy)-1H-benzimidazol-1-yl]methyl}benzoic acid]: 1020 to 10000 nM.
